Data taken from article PMC5575254, “An allosteric ligand-binding site in the extracellular cap of K2P channels” (Nature Communications, 2017).

Columns and labels:
TREK-2 = target: T1, TREK-2 (Homo sapiens, UniProt P57789); assay: Whole-cell voltage clamp of CHO cells expressing TREK-2; type: cell-based; conditions: mean ± s.e.m
T1 construct: expressed in transfected cells; host or cells: CHO cells, transient transfection
T1 sequence (P57789 1-538): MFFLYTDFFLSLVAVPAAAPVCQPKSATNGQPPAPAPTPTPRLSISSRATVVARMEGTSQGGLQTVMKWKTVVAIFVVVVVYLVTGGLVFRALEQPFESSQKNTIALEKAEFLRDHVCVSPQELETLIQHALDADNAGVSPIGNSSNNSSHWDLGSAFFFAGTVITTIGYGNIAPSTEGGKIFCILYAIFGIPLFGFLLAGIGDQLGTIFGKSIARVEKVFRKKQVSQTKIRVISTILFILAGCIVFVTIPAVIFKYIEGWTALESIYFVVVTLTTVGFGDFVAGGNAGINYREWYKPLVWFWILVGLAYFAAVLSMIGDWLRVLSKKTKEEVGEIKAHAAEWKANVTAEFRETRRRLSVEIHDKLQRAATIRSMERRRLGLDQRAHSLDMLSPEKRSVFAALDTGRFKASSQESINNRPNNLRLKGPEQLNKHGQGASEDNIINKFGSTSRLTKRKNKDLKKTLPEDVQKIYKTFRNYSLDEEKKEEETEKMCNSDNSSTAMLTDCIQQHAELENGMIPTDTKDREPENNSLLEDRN
Description: (§1) cDNA of the human TREK-1, TREK-2 and TRAAK channels were subcloned into the pEGFPN1 expression vector (Invitrogen), respectively. Mutations were introduced into TREK-1 or TRAAK by PCR using the QuickChange XL sitedirected mutagenesis kit (Agilent Technologies) and were subsequently confirmed by DNA sequencing.
(§2) Chinese hamster ovary (CHO) cells were provided by the Cell Bank of Chinese Academy of Sciences (Shanghai, China). CHO cells were maintained in DMEM/F12 (Gibco) supplemented with 10% fetal bovine serum (Gibco) and 100 μg ml^−1 penicillin-streptomycin (Cellgro) in a humidified incubator at 37 °C (5% CO2). For electrophysiology experiments, cells plated in 35 mm tissue culture dishes (Corning Incorporated) were transiently transfected with the plasmids using PolyJet™ reagent (SignaGen) according to the manufacturer’s instructions. Primers used in this study are listed in Supplementary Table 4.
(§3) All electrophysiological recordings were obtained using patch-clamp recordings in two different configurations: (1) whole cell for macroscopic current dose–response curves; and (2) outside-out and inside-out for macroscopic currents recordings.
(§4) All patch-clamp recordings were conducted 36–96 h after transfection with an Axopatch-200B amplifier (Molecular Devices) at room temperature (23–25 °C). The microelectrodes fashioned from 1.5 mm thin-walled borosilicate glass with filament were pulled from Flaming/Brown type micropipette puller (P-97; SUTTER INSTRUMENT) with the resistances of 3–7 MΩ (whole cell) or 7–15 MΩ (outside-out) when filled with a solution containing (in mM): 140 KCl, 2 MgCl2, 10 EGTA, 1 CaCl2, 10 HEPES (pH 7.3, adjusted with KOH). External solution contained (in mM): 150 NaCl, 5 KCl, 0.5 CaCl2, 1.2 MgCl2, 10 HEPES (pH 7.3, adjusted with NaOH). The current signals were filtered at 1 kHz and digitized at a 10 kHz sampling frequency by using DigiData 1440 A.
(§5) Data of whole-cell voltage clamp experiments were fitted using doseResp function. The half inhibition concentrations were derived from fits of the dose–response curves to the function:1 I/I0=A1+A2-A1/1+10^logx0-xP, where I 0 and I are current amplitudes before and after application of inhibitors; A 1 and A 2 are constants between 0 and 1; x is the concentration of inhibitor; x o is the concentration when 50% inhibition was reached (IC50), P is the Hill constant.

TRAAK = target: T2, TRAAK (Homo sapiens, UniProt Q9NYG8); assay: Whole-cell voltage clamp of CHO cells expressing TRAAK; type: cell-based; conditions: whole-cell
T2 construct: expressed in transfected cells; host or cells: CHO cells, transient transfection
T2 sequence (Q9NYG8 1-393): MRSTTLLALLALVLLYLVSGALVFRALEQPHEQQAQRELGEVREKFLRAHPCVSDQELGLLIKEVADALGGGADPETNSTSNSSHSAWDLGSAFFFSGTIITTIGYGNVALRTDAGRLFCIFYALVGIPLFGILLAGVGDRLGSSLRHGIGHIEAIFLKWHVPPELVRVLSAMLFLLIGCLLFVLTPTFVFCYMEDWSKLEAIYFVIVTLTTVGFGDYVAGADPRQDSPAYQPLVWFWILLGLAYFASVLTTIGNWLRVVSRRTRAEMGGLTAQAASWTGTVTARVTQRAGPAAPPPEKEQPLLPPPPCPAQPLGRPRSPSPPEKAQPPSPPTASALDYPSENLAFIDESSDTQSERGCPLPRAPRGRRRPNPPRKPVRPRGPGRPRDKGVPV
Description: as §1, §2, §3, §4, §5

mice [1] = assay: Forced swimming test; type: in vivo, Male C57BL/6 mice; conditions: chronic i.p. administration 10 days; TKDC 0.5, 1, 5 mg kg-1; fluoxetine 10 mg kg-1; vs vehicle
Protocol: (§6) Male C57BL/6 mice, aged 8 weeks (weighing 18–20 g) were used for acute and chronic drug administration and behavioral tests. The mice were housed four per cage under a 12-h light–dark cycle. Mice were raised under stable conditions with food and water ad libitum. All animal studies and experimental procedures were approved by the Animal Care Committees of the Shanghai Institute of Materia Medica, Chinese Academy of Sciences, and experiments were carried out in accordance with EU Directive 2010/63/EU on the protection of animals used for scientific purposes. […] The mice were removed to a sound-attenuating testing room 3–4 h before testing. The behavioral tests were carried out 30 min and 24 h after acute and chronic drugs administration, respectively.
The mice were performed under normal light. The apparatus was a transparent Plexiglas cylinder with 30 cm height × 10 cm diameter and the water temperature at 23–25 °C were set to prevent mice from touching the bottom with their limbs. Mice were allowed to swim for 8 min, and their activity was videotaped. There was an extra 15-min swimming in the previous day. The duration of immobility defined as floating or remaining motionless was assessed. To avoid extremely active at the beginning of swimming, the first 2 min of swimming was also excluded as the tail suspension test. […]

mice [2] = assay: Tail suspension test; type: in vivo, Male C57BL/6 mice; conditions: chronic i.p. administration 10 days; 0.5, 1, 5 mg kg-1
Protocol: as §6
Mice were secured on the shelf by using adhesive tape placed approximately 1 cm from the tip of the tail. The mice were then suspended by placing the other end of the tape on the edge of shelf at the height of 80 cm above the floor. Six-minute session was performed for each animal. A blinded experiment was conducted to record the amount of time spent immobile during the last 4 min of the testing period; the first 2 min were excluded. Because most mice are very active at the beginning of the test, and the potential effects of the treatment can be minimized during the first 2 min. […]

CS(=O)(=O)N(CC(=O)N1CCc2ccccc2C1)c1ccc(Cl)cc1 [TKDC, N-(4-cholorphenyl)-N-(2-(3,4-dihydrosioquinolin-2(1H)-yl)-2-oxoethyl)methanesulfonamide]
IC50 (TREK-2): 5.2 ± 1.9 µM | decrease in the current (TRAAK; TRAAK, 300 μM TKDC perfused): ~ 75% | IC50 (TRAAK; CHO cells, WT TRAAK, mean ± s.e.m): 65.9 ± 7 µM | immobility in the forced swimming test (mice [1]): decrease in immobility | immobility in the tail suspension test (mice [2]): dose-dependent decrease in immobility
